Results reported in ChEMBL document CHEMBL4373717, “Coumarin-containing hybrids and their anticancer activities” (Eur J Med Chem, 2019).
Converted amounts (≈) assume the structure as drawn.

What was measured:
MCF7 [1] = experiment: Potency index, ratio of methotrexate IC50 to compound IC50 for cytotoxicity against human MCF7 cells assessed as reduction in cell viability; format: functional
MCF7 [2] = experiment: Cytotoxicity against human MCF7 cells assessed as reduction in cell viability by MTT assay; format: functional, cell-based
MDA-MB-231 [3] = experiment: Cytotoxicity against human MDA-MB-231 cells assessed as reduction in cell viability after 24 hrs by MTT assay; format: functional, cell-based
MDA-MB-231 [4] = experiment: Potency index, ratio of doxorubicin IC50 to compound IC50 for cytotoxicity against human MDA-MB-231 cells in hypoxic condition; format: functional
MDA-MB-231 [5] = experiment: Potency index, ratio of doxorubicin IC50 to compound IC50 for cytotoxicity against human MDA-MB-231 cells in normoxic condition; format: functional
MDA-MB-231 [6] = experiment: Potency index, ratio of cisplatin IC50 to compound IC50 for cytotoxicity against human MDA-MB-231 cells in hypoxic condition; format: functional
MDA-MB-231 [7] = experiment: Potency index, ratio of cisplatin IC50 to compound IC50 for cytotoxicity against human MDA-MB-231 cells in normoxic condition; format: functional
MCF7 [8] = experiment: Growth inhibition of human MCF7 cells; format: functional
NCI-H460 [9] = experiment: Potency index, ratio of doxorubicin GI50 to compound GI50 for growth inhibition of human NCI-H460 cells; format: functional
SF-268 [10] = experiment: Potency index, ratio of doxorubicin GI50 to compound GI50 for growth inhibition of human SF268 cells; format: functional
NCI-H460 [11] = experiment: Growth inhibition of human NCI-H460 cells; format: functional
SF-268 [12] = experiment: Growth inhibition of human SF268 cells; format: functional
MCF7 [13] = experiment: Potency index, ratio of doxorubicin GI50 to compound GI50 for growth inhibition of human MCF7 cells; format: functional
[14] = Toxicity in mouse assessed as mouse survival (reference value: 14.5 days); settings: in vivo, 348 h
HepG2 [15] = experiment: Cytotoxicity against human HepG2 cells assessed as reduction in cell viability by MTT assay; format: functional, cell-based
HepG2 [16] = experiment: Potency index, ratio of doxorubicin IC50 to compound IC50 for anticancer activity against human HepG2 cells by MTT assay; format: functional
HepG2 [17] = experiment: Anticancer activity against human HepG2 cells by MTT assay; format: functional, cell-based
MCF7 [18] = experiment: Growth inhibition of human MCF7 cells relative to control; format: functional
MDA-MB-231 [19] = experiment: Growth inhibition of human MDA-MB-231 cells relative to control; format: functional
Ishikawa [20] = experiment: Growth inhibition of human Ishikawa cells relative to control; format: functional
MDA-MB-231 [21] = experiment: Cytotoxicity against human MDA-MB-231 cells assessed as reduction in cell viability; format: functional, cell-based
Ishikawa [22] = experiment: Cytotoxicity against human Ishikawa cells assessed as reduction in cell viability; format: functional, cell-based
MCF7 [23] = experiment: Cytotoxicity against human MCF7 cells assessed as reduction in cell viability; format: functional, cell-based
COS-7 = experiment: Cytotoxicity against African green monkey COS7 cells assessed as reduction in cell viability by MTT assay; format: functional, cell-based; settings: Chlorocebus aethiops
HeLa [24] = experiment: Cytotoxicity against human HeLa cells assessed as reduction in cell viability by MTT assay; format: functional, cell-based
AGS = experiment: Growth inhibition of human AGS cells; format: functional
[25] = Growth inhibition of human KATO III cells; format: functional
SNU1 = experiment: Growth inhibition of human SNU1 cells; format: functional
SK-OV-3 = experiment: Growth inhibition of human SKOV3 cells; format: functional
OVCAR-8 = experiment: Growth inhibition of human OVCAR8 cells; format: functional
BXPC-3 = experiment: Growth inhibition of human BxPC3 cells; format: functional
PANC-1 = experiment: Growth inhibition of human PANC1 cells; format: functional
T-24 = experiment: Growth inhibition of human T24 cells; format: functional
WiDr = experiment: Growth inhibition of human WiDr cells; format: functional
HepG2 [26] = experiment: Growth inhibition of human HepG2 cells; format: functional
SN12C = experiment: Growth inhibition of human SN12C cells; format: functional
K562 [27] = experiment: Growth inhibition of human K562 cells; format: functional
MDA-MB-231 [28] = experiment: Cytotoxicity against human MDA-MB-231 cells assessed as reduction in cell viability after 24 hrs in hypoxic condition by MTT assay; settings: MDA-MB-231, 24 h
A549 [29] = experiment: Cytotoxicity against human A549 cells assessed as reduction in cell viability after 24 hrs by MTT assay; format: functional, cell-based; settings: A549, 24 h
A549 [30] = experiment: Anticancer activity against human A549 cells by MTT assay; format: functional, cell-based
MDA-MB-231 [31] = experiment: Anticancer activity against human MDA-MB-231 cells by MTT assay; format: functional, cell-based
HeLa [32] = experiment: Anticancer activity against human HeLa cells by MTT assay; format: functional, cell-based
K562 [33] = experiment: Anticancer activity against human K562 cells by MTT assay; format: functional, cell-based
L02 = experiment: Cytotoxicity against human L02 cells assessed as reduction in cell viability after 24 hrs by MTT assay; format: cell-based; settings: L02, 24 h
HEK-293T = experiment: Cytotoxicity against HEK293T cells assessed as reduction in cell viability after 24 hrs by MTT assay; format: cell-based; settings: Homo sapiens
HeLa [34] = experiment: Cytotoxicity against human HeLa cells assessed as reduction in cell viability after 24 hrs by MTT assay; format: functional, cell-based
HepG2 [35] = experiment: Antiproliferative activity against human HepG2 cells after 72 hrs by ELISA; format: functional, cell-based; settings: HepG2, 72 h
Caco-2 = experiment: Antiproliferative activity against human Caco2 cells after 72 hrs by ELISA; format: functional, cell-based; settings: Caco-2, 72 h
PC-3 = experiment: Cytotoxicity against human PC3 cells assessed as reduction in cell viability by MTT assay; format: functional, cell-based
769-P = experiment: Anticancer activity against human 769-P cells by MTT assay; format: functional, cell-based
HT-29 = experiment: Cytotoxicity against human HT-29 cells assessed as reduction in cell viability by MTT assay; format: functional, cell-based
A549 [36] = experiment: Cytotoxicity against human A549 cells assessed as reduction in cell viability by MTT assay; format: functional, cell-based
HeLa [37] = experiment: Antiproliferative activity against human HeLa cells by MTT assay; format: functional, cell-based
DLD-1 = experiment: Cytotoxicity against human DLD1 cells assessed as reduction in cell viability; format: functional, cell-based
HepG2 [38] = experiment: Cytotoxicity against human HepG2 cells assessed as reduction in cell viability after 48 hrs by MTT assay; format: functional, cell-based; settings: HepG2, 48 h

CCN(C)S(=O)(=O)c1ccc(/C(C)=N/NC(=O)c2cc(=O)oc3ccccc23)cc1
Ratio IC50 (MCF7 [1]): 10.7 | IC50 (MCF7 [2]; Homo sapiens, MCF7): 2.53 µM

COc1ccc(NC(=O)c2ccc(-n3cc(COc4cc(=O)oc5ccccc45)nn3)cc2)cc1OC
IC50 (MDA-MB-231 [3]; mda-mb-231): 0.03 to 91.6 µM | Ratio IC50 (MDA-MB-231 [4]): 20 - 156 | Ratio IC50 (MDA-MB-231 [5]): 20 - 156 | Ratio IC50 (MDA-MB-231 [6]): 20 - 156 | Ratio IC50 (MDA-MB-231 [7]): 20 - 156

O=c1oc2ccccc2cc1-c1nc2ccccc2n1C(=S)Nc1ccccc1
GI50 (MCF7 [8]): 0.05 to 0.08 µM | RatioGI50 (NCI-H460 [9]): 1.5 - 2 | RatioGI50 (SF-268 [10]): 1.5 - 2 | GI50 (NCI-H460 [11]): 0.05 to 0.08 µM | GI50 (SF-268 [12]): 0.05 to 0.08 µM | RatioGI50 (MCF7 [13]): 1.5 - 2

O=c1[nH]cc(F)c(=O)[nH]1 [FLUOROURACIL]
Survival [14]: 49 days | growth inhibition (GI) (HepG2 [15]): 11.55 - 95.52% | growth inhibition (GI) (MCF7 [2]): 11.55 - 95.52%

O=c1ccc2ccc(OCCn3cc(COc4ccc5ccc(=O)oc5c4)nn3)cc2o1
Ratio IC50 (HepG2 [16]): 2.1 | IC50 (HepG2 [17]): 0.383 µM

Cc1cc(=O)oc2cc(Oc3nc(-c4cccs4)cn4c(-c5cccs5)cnc34)ccc12
growth inhibition (GI) (MCF7 [18]): 10.57 - 92.29% | growth inhibition (GI) (MDA-MB-231 [19]): 10.57 - 92.29% | growth inhibition (GI) (Ishikawa [20]): 10.57 - 92.29%

CCOC(=O)c1cc2cc(-c3nc4cc(C)ccn4c3NC(C)(C)C)cc(C(C)C)c2oc1=O
IC50 (MDA-MB-231 [21]): 14.1 to 50 µM | IC50 (Ishikawa [22]): 14.1 to 50 µM | IC50 (MCF7 [23]): 14.1 to 50 µM

COC(=O)c1cc2cc(-c3nc4cc(C)ccn4c3NC(C)(C)C)cc(C(C)C)c2oc1=O
IC50 (MDA-MB-231 [21]): 14.1 to 42.6 µM | IC50 (Ishikawa [22]): 14.1 to 42.6 µM | IC50 (MCF7 [23]): 14.1 to 42.6 µM

O=c1oc2ccccc2cc1-c1csc(N/N=C/c2c3ccccc3c(Cl)c3ccccc23)n1
Survival [14]: 45.5 days | IC50 (COS-7): 1.29 to 1.96 µM | IC50 (HeLa [24]): 1.29 to 1.96 µM | IC50 (MCF7 [23]): 1.29 to 1.96 µM

CCN(CC)c1ccc2cc(-c3nc4ccccc4n3C)c(=O)oc2c1
GI50 (AGS): 0.07 to 0.41 µM | GI50 [25]: 0.07 to 0.41 µM | GI50 (SNU1): 0.07 to 0.41 µM | GI50 (SK-OV-3): 0.07 to 0.41 µM | GI50 (OVCAR-8): 0.07 to 0.41 µM | GI50 (BXPC-3): 0.07 to 0.41 µM | GI50 (PANC-1): 0.07 to 0.41 µM | GI50 (T-24): 0.07 to 0.41 µM | GI50 (WiDr): 0.07 to 0.41 µM | GI50 (HepG2 [26]): 0.07 to 0.41 µM | GI50 (SN12C): 0.07 to 0.41 µM | GI50 (K562 [27]): 0.07 to 0.41 µM | GI50 (MCF7 [8]): 0.07 to 0.41 µM

COc1cccc2c1C(=O)c1c(O)c3c(c(O)c1C2=O)C[C@@](O)(C(=O)CO)C[C@@H]3O[C@H]1C[C@H](N)[C@H](O)[C@H](C)O1 [DOXORUBICIN]
IC50 (MDA-MB-231 [3]; Homo sapiens, MDA-MB-231, 24 h): 3.97 to 5.13 µM | IC50 (MDA-MB-231 [28]): 0.6 µM | IC50 (A549 [29]): 3.97 to 5.13 µM | IC50 (A549 [30]): 0.54 to 0.6 mg/L (≈ 0.994 to 1.1 µM) | IC50 (MDA-MB-231 [31]): 0.45 to 0.89 mg/L (≈ 0.828 to 1.64 µM) | IC50 (HeLa [32]): 0.54 to 0.6 mg/L (≈ 0.994 to 1.1 µM) | IC50 (K562 [33]): 0.54 to 0.6 mg/L (≈ 0.994 to 1.1 µM) | GI50 (MCF7 [8]): 0.04 to 0.09 µM | IC50 (L02): 1.09 µM | IC50 (HEK-293T): 3.77 µM | IC50 (HeLa [34]): 3.97 to 5.13 µM | IC50 (HepG2 [35]): 4.1 µM | IC50 (Caco-2): 5.13 µM | IC50 (COS-7): 2.05 to 3.04 µM | IC50 (PC-3): 0.82 to 2.13 µM | IC50 (769-P): 0.45 to 0.89 µM | IC50 (HepG2 [17]): 0.45 to 0.89 µM | IC50 (HT-29): 0.82 to 2.13 µM | IC50 (A549 [36]): 0.82 to 2.13 µM | IC50 (HeLa [24]): 0.82 to 3.04 µM | IC50 (HeLa [37]): 1.11 µM | IC50 (DLD-1): 163 µM | growth inhibition (GI) (Ishikawa [20]): 11.55 - 95.52% | GI50 (NCI-H460 [11]): 0.04 to 0.09 µM | GI50 (SF-268 [12]): 0.04 to 0.09 µM | IC50 (HepG2 [38]): 3.01 µM
